Measurements as given in patent US8343951B2, “Volatile sulfide production inhibitor and method for inhibiting the production of volatile sulfide using the inhibitor” (Kabushiki Kaisha Hayashibara Seibutsu Kagaku Kenkyujo, priority 2006, dated 2013).

Assays:
[1] = Hydrogen sulfide production from heated mackerel meat homogenate (headspace detecting tube); conditions: for Produced Volatile sulfide: hydrogen sulfide in headspace; for Inhibiting rate of volatile sulfide production: hydrogen sulfide, relative to control
Procedure: AA-2G (reagent grade, commercialized by Hayashibara Biochemical Laboratories, Inc.) was dissolved in distilled water to give a solution of a concentration of 10%. A certain amount of the solution and 5 ml of 500 mM phosphate buffer (pH 7.0) were put into measuring flask and filled up to 50 ml to give the test solutions containing AA-2G at the twofold concentration described in Table 1. Also the test solutions containing ascorbic acid were prepared in the same way except for using ascorbic acid (guaranteed regent) in place of AA-2G. Five ml of 500 mM phosphate buffer (pH 7.0) was filled up to 50 ml with distilled water to give control solution. Edible part of commercial mackerel fillet without bone and skin was chopped with trio blender and homogeneously stirred to make minced mackerel. Forty-five grams of the minced mackerel was put into a beaker and added with 45 g of the test solution or control solution to give the samples at the concentration of AA-2G or ascorbic acid described in Table 1. The samples were treated with homogenizer (produced by IKA Works Inc.) at ice-chilled temperature to give the homogenates as the test samples. PH of the homogenates is from 6.21 to 6.38. Ten grams of the above samples were put into 20 ml-vials and sealed with butyl rubber cap and aluminum seal. They were heated in boiled water bath for 15 minutes and cooled in running cool water. After cooled, they were heated on heating block (80° C.) for 10 minutes and the solidified samples were broken with vortex mixer. The amounts of hydrogen sulfide in the headspace gas were measured by hydrogen sulfide detecting tube ([…] No. 4LT, produced by GL Sciences Inc.). Also the inhibiting rate (%) of hydrogen sulfide production were shown in Table 1, which were obtained by subtracting the percentage amounts of hydrogen sulfide produced from 1 g of mackerel meats added with test solutions relative to the amount of hydrogen sulfide produced from 1 g of mackerel meat added with control solution from 100 to obtain.

[2] = Dimethyl-sulfide and dimethyl-disulfide production from heated milk (headspace gas chromatography); conditions: for Produced Dimethyl-disulfide / Produced Dimethyl-sulfide: milk heated 130° C. one minute; for production of volatile sulfides (dimethyl-sulfide and dimethyl-disulfide) from the test solutions / Produced Volatile sulfide: milk; for Inhibiting rate of volatile sulfide production: relative to control milk; for Produced Volatile sulfide: sum of dimethyl-sulfide and dimethyl-disulfide
Procedure: AA-2G (reagent grade, commercialized by Hayashibara Biochemical Laboratories, Inc.) was added in commercial milk to give the concentrations described in Table 2 to make the test solutions. Test solutions containing ascorbic acid were prepared in the same way except for using ascorbic acid (guaranteed regent) in place of AA-2G. The commercial milk was used plain as control. Sensory test of the solutions was performed by 11 panelists to evaluate the taste of each test solution added with AA-2G or ascorbic acid as being different (D) from control or as being the same (S) as control. As a result, eight or more of the 11 panelists gave a same evaluation to each test solution.
One ml of the above samples were put into 20 ml-vials and sealed with butyl rubber cap and aluminum seal. After heated at 130° C. for one minute, the amounts of dimethyl-sulfide and dimethyl-disulfide in the headspace were measured by gas chromatography in conventional way. The sums of them were shown as the amounts of volatile sulfide in Table 2. Also the inhibiting rates (%) of volatile sulfide production were shown in Table 2, which were obtained by subtracting the percentage amounts of volatile sulfide produced from ml of the test solutions relative to the amount of volatile sulfide produced from 1 ml of control (milk) from 100 to obtain.

Compound: O=C1O[C@H]([C@@H](O)CO)C(O)=C1O[C@H]1O[C@H](CO)[C@@H](O)[C@H](O)[C@H]1O [AA-2G, α-D-glucopyronosyl-(1→2)-L-ascorbic acid]
- hydrogen sulfide production from homogenate of mackerel meat ([1]; AA-2G concentration of 0.1%): enhanced
- hydrogen sulfide production from homogenate of mackerel meat ([1]; concentration in a range from 0.0005 to 0.5%, versus control): inhibited
- Produced Volatile sulfide ([1]; additive 0.0001% in sample): 44.5 μg/g-mackerel
- Produced Volatile sulfide ([1]; additive 0.0005% in sample): 30.7 μg/g-mackerel
- Produced Volatile sulfide ([1]; additive 0.001% in sample): 17.4 μg/g-mackerel
- Produced Volatile sulfide ([1]; additive 0.005% in sample): 11.5 μg/g-mackerel
- Produced Volatile sulfide ([1]; additive 0.01% in sample): 13.2 μg/g-mackerel
- Produced Volatile sulfide ([1]; additive 0.025% in sample): 16.1 μg/g-mackerel
- Produced Volatile sulfide ([1]; additive 0.05% in sample): 19.9 μg/g-mackerel
- Produced Volatile sulfide ([1]; additive 0.1% in sample): 25.9 μg/g-mackerel
- Produced Volatile sulfide ([1]; additive 0.5% in sample): 38.2 μg/g-mackerel
- Produced Volatile sulfide ([1]; additive 1.0% in sample): 48.5 μg/g-mackerel
- Inhibiting rate of volatile sulfide production ([1]; additive 0.0001% in sample): −3.0%
- Inhibiting rate of volatile sulfide production ([1]; additive 0.0005% in sample): 28.9%
- Inhibiting rate of volatile sulfide production ([1]; additive 0.001% in sample): 59.7%
- Inhibiting rate of volatile sulfide production ([1]; additive 0.005% in sample): 73.4%
- Inhibiting rate of volatile sulfide production ([1]; additive 0.01% in sample): 69.4%
- Inhibiting rate of volatile sulfide production ([1]; additive 0.025% in sample): 62.7%
- Inhibiting rate of volatile sulfide production ([1]; additive 0.05% in sample): 53.9%
- Inhibiting rate of volatile sulfide production ([1]; additive 0.1% in sample): 40.0%
- Inhibiting rate of volatile sulfide production ([1]; additive 0.5% in sample): 11.6%
- Inhibiting rate of volatile sulfide production ([1]; additive 1.0% in sample): −12.3%
- Produced Dimethyl-disulfide ([2]; additive 0.0001% in sample): 0.54 μg/ml-milk
- Produced Dimethyl-sulfide ([2]; additive 0.0001% in sample): 1.30 μg/ml-milk
- Produced Dimethyl-disulfide ([2]; additive 0.0005% in sample): 0.43 μg/ml-milk
- Produced Dimethyl-sulfide ([2]; additive 0.0005% in sample): 1.12 μg/ml-milk
- Produced Dimethyl-disulfide ([2]; additive 0.001% in sample): 0.37 μg/ml-milk
- Produced Dimethyl-sulfide ([2]; additive 0.001% in sample): 0.75 μg/ml-milk
- Produced Dimethyl-disulfide ([2]; additive 0.005% in sample): 0.14 μg/ml-milk
- Produced Dimethyl-sulfide ([2]; additive 0.005% in sample): 0.23 μg/ml-milk
- Produced Dimethyl-disulfide ([2]; additive 0.01% in sample): 0.14 μg/ml-milk
- Produced Dimethyl-sulfide ([2]; additive 0.01% in sample): 0.11 μg/ml-milk
- Produced Dimethyl-disulfide ([2]; additive 0.05% in sample): 0.07 μg/ml-milk
- Produced Dimethyl-sulfide ([2]; additive 0.05% in sample): 0.07 μg/ml-milk
- Produced Dimethyl-disulfide ([2]; additive 0.1% in sample): 0.07 μg/ml-milk
- Produced Dimethyl-sulfide ([2]; additive 0.1% in sample): 0.06 μg/ml-milk
- Produced Dimethyl-disulfide ([2]; additive 0.5% in sample): 0.08 μg/ml-milk
- Produced Dimethyl-sulfide ([2]; additive 0.5% in sample): 0.10 μg/ml-milk
- Produced Dimethyl-disulfide ([2]; additive 2.5% in sample): 0.19 μg/ml-milk
- Produced Dimethyl-sulfide ([2]; additive 2.5% in sample): 0.28 μg/ml-milk
- production of volatile sulfides (dimethyl-sulfide and dimethyl-disulfide) from the test solutions ([2]; concentration from 0.005 to 0.5%): strongly inhibited
- production of volatile sulfides (dimethyl-sulfide and dimethyl-disulfide) from the test solutions ([2]; concentration of 0.0005% or more, compared to control): inhibited
- Inhibiting rate of volatile sulfide production ([2]; additive 0.0001% in sample): 2.6%
- Inhibiting rate of volatile sulfide production ([2]; additive 0.0005% in sample): 18.0%
- Inhibiting rate of volatile sulfide production ([2]; additive 0.001% in sample): 40.7%
- Inhibiting rate of volatile sulfide production ([2]; additive 0.005% in sample): 80.4%
- Inhibiting rate of volatile sulfide production ([2]; additive 0.01% in sample): 86.8%
- Inhibiting rate of volatile sulfide production ([2]; additive 0.05% in sample): 92.6%
- Inhibiting rate of volatile sulfide production ([2]; additive 0.1% in sample): 93.1%
- Inhibiting rate of volatile sulfide production ([2]; additive 0.5% in sample): 90.5%
- Inhibiting rate of volatile sulfide production ([2]; additive 2.5% in sample): 75.1%
- Produced Volatile sulfide ([2]; additive 0.0001% in sample): 1.94 µg/mL
- Produced Volatile sulfide ([2]; additive 0.0005% in sample): 1.55 µg/mL
- Produced Volatile sulfide ([2]; additive 0.001% in sample): 1.12 µg/mL
- Produced Volatile sulfide ([2]; additive 0.005% in sample): 0.37 µg/mL
- Produced Volatile sulfide ([2]; additive 0.01% in sample): 0.25 µg/mL
- Produced Volatile sulfide ([2]; additive 0.05% in sample): 0.14 µg/mL
- Produced Volatile sulfide ([2]; additive 0.1% in sample): 0.13 µg/mL
- Produced Volatile sulfide ([2]; additive 0.5% in sample): 0.18 µg/mL
- Produced Volatile sulfide ([2]; additive 2.5% in sample): 0.47 µg/mL

Compound: O=C1O[C@H]([C@@H](O)CO)C(O)=C1O [Ascorbic acid, L-ascorbic acid, reference compound]
- hydrogen sulfide production from homogenate of mackerel meat ([1]; concentration of 0.005% or less): equal to control
- hydrogen sulfide production from homogenate of mackerel meat ([1]; concentration of 0.01% or more): enhanced
- Produced Volatile sulfide ([1]; additive 0.0001% in sample): 44.1 μg/g-mackerel
- Produced Volatile sulfide ([1]; additive 0.0005% in sample): 43.4 μg/g-mackerel
- Produced Volatile sulfide ([1]; additive 0.001% in sample): 43.6 μg/g-mackerel
- Produced Volatile sulfide ([1]; additive 0.005% in sample): 42.9 μg/g-mackerel
- Produced Volatile sulfide ([1]; additive 0.01% in sample): 71.7 μg/g-mackerel
- Produced Volatile sulfide ([1]; additive 0.025% in sample): 133.9 μg/g-mackerel
- Produced Volatile sulfide ([1]; additive 0.05% in sample): 139.3 μg/g-mackerel
- Produced Volatile sulfide ([1]; additive 0.1% in sample): 207.1 μg/g-mackerel
- Produced Volatile sulfide ([1]; additive 0.5% in sample): 257.4 μg/g-mackerel
- Produced Volatile sulfide ([1]; additive 1.0% in sample): 287.8 μg/g-mackerel
- Inhibiting rate of volatile sulfide production ([1]; additive 0.0001% in sample): −2.1%
- Inhibiting rate of volatile sulfide production ([1]; additive 0.0005% in sample): −0.5%
- Inhibiting rate of volatile sulfide production ([1]; additive 0.001% in sample): −0.9%
- Inhibiting rate of volatile sulfide production ([1]; additive 0.005% in sample): 0.7%
- Inhibiting rate of volatile sulfide production ([1]; additive 0.01% in sample): −66.0%
- Inhibiting rate of volatile sulfide production ([1]; additive 0.025% in sample): −210.0%
- Inhibiting rate of volatile sulfide production ([1]; additive 0.05% in sample): −222.5%
- Inhibiting rate of volatile sulfide production ([1]; additive 0.1% in sample): −379.4%
- Inhibiting rate of volatile sulfide production ([1]; additive 0.5% in sample): −495.8%
- Produced Dimethyl-disulfide ([2]; additive 0.0001% in sample): 0.56 μg/ml-milk
- Produced Dimethyl-sulfide ([2]; additive 0.0001% in sample): 1.32 μg/ml-milk
- Produced Dimethyl-disulfide ([2]; additive 0.0005% in sample): 0.54 μg/ml-milk
- Produced Dimethyl-sulfide ([2]; additive 0.0005% in sample): 1.41 μg/ml-milk
- Produced Dimethyl-disulfide ([2]; additive 0.001% in sample): 0.51 μg/ml-milk
- Produced Dimethyl-sulfide ([2]; additive 0.001% in sample): 1.28 μg/ml-milk
- Produced Dimethyl-disulfide ([2]; additive 0.005% in sample): 0.24 μg/ml-milk
- Produced Dimethyl-sulfide ([2]; additive 0.005% in sample): 0.71 μg/ml-milk
- Produced Dimethyl-disulfide ([2]; additive 0.01% in sample): 0.21 μg/ml-milk
- Produced Dimethyl-sulfide ([2]; additive 0.01% in sample): 0.45 μg/ml-milk
- Produced Dimethyl-disulfide ([2]; additive 0.05% in sample): 0.18 μg/ml-milk
- Produced Dimethyl-sulfide ([2]; additive 0.05% in sample): 0.54 μg/ml-milk
- Produced Dimethyl-disulfide ([2]; additive 0.1% in sample): 0.27 μg/ml-milk
- Produced Dimethyl-sulfide ([2]; additive 0.1% in sample): 0.61 μg/ml-milk
- Produced Dimethyl-disulfide ([2]; additive 0.5% in sample): 0.31 μg/ml-milk
- Produced Dimethyl-sulfide ([2]; additive 0.5% in sample): 0.74 μg/ml-milk
- Produced Dimethyl-disulfide ([2]; additive 2.5% in sample): 0.38 μg/ml-milk
- Produced Dimethyl-sulfide ([2]; additive 2.5% in sample): 1.07 μg/ml-milk
- production of volatile sulfides (dimethyl-sulfide and dimethyl-disulfide) from the test solutions ([2]; concentration of 0.001% or less): equal to control
- production of volatile sulfides (dimethyl-sulfide and dimethyl-disulfide) from the test solutions ([2]; concentration of 0.005%): inhibited
- Inhibiting rate of volatile sulfide production ([2]; additive 0.0001% in sample): 0.5%
- Inhibiting rate of volatile sulfide production ([2]; additive 0.0005% in sample): −3.2%
- Inhibiting rate of volatile sulfide production ([2]; additive 0.001% in sample): 5.3%
- Inhibiting rate of volatile sulfide production ([2]; additive 0.005% in sample): 49.7%
- Inhibiting rate of volatile sulfide production ([2]; additive 0.01% in sample): 65.1%
- Inhibiting rate of volatile sulfide production ([2]; additive 0.05% in sample): 61.9%
- Inhibiting rate of volatile sulfide production ([2]; additive 0.1% in sample): 53.4%
- Inhibiting rate of volatile sulfide production ([2]; additive 0.5% in sample): 44.4%
- Inhibiting rate of volatile sulfide production ([2]; additive 2.5% in sample): 23.3%
- Produced Volatile sulfide ([2]; additive 0.0001% in sample): 1.88 µg/mL
- Produced Volatile sulfide ([2]; additive 0.0005% in sample): 1.95 µg/mL
- Produced Volatile sulfide ([2]; additive 0.001% in sample): 1.79 µg/mL
- Produced Volatile sulfide ([2]; additive 0.005% in sample): 0.95 µg/mL
- Produced Volatile sulfide ([2]; additive 0.01% in sample): 0.66 µg/mL
- Produced Volatile sulfide ([2]; additive 0.05% in sample): 0.72 µg/mL
- Produced Volatile sulfide ([2]; additive 0.1% in sample): 0.88 µg/mL
- Produced Volatile sulfide ([2]; additive 0.5% in sample): 1.05 µg/mL
- Produced Volatile sulfide ([2]; additive 2.5% in sample): 1.45 µg/mL
